Data taken from ChEMBL document CHEMBL1201862, “PubChem BioAssay data set” (2004).
The source made the active and inactive calls.

Key:
[1] = Counterscreen for activators of the function of SWI/SNF related, matrix associated, actin dependent regulator of chromatin, subfamily a, member 2 (SMARCA2, BRM): Luminescence-based cell-based high throughput dose response assay to identify non-selective compounds using the VP16 reporter assay.; format: functional
[2] = target: Luciferin 4-monooxygenase (Photinus pyralis, UniProt P08659); experiment: firefly luciferase enzyme inhibitors, dose response, biochemical, luminescence (AID 1891)
Sequence of Luciferin 4-monooxygenase (P08659 whole entry): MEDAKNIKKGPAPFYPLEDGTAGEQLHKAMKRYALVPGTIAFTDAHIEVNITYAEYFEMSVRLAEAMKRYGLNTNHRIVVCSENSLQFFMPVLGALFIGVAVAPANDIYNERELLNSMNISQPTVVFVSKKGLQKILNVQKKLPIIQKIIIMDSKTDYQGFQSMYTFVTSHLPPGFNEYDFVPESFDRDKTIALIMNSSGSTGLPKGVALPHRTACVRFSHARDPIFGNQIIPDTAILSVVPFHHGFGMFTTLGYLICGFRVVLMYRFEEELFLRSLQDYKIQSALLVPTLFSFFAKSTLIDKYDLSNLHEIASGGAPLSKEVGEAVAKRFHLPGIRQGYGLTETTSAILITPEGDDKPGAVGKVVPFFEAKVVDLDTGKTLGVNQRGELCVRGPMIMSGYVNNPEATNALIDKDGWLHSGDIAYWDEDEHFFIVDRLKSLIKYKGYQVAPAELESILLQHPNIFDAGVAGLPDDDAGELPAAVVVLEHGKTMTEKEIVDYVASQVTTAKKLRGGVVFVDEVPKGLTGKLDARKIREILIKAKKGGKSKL

[3] = target: SWI/SNF-related matrix-associated actin-dependent regulator of chromatin subfamily A member 2 (Homo sapiens, UniProt P51531); experiment: Luminescence-based cell-based high throughput dose response assay to identify activators of the function of SWI/SNF related, matrix associated, actin dependent regulator of chromatin, subfamily a, member 2 (SMARCA2, BRM).; format: functional
Sequence of SWI/SNF-related matrix-associated actin-dependent regulator of chromatin subfamily A member 2 (P51531 whole entry): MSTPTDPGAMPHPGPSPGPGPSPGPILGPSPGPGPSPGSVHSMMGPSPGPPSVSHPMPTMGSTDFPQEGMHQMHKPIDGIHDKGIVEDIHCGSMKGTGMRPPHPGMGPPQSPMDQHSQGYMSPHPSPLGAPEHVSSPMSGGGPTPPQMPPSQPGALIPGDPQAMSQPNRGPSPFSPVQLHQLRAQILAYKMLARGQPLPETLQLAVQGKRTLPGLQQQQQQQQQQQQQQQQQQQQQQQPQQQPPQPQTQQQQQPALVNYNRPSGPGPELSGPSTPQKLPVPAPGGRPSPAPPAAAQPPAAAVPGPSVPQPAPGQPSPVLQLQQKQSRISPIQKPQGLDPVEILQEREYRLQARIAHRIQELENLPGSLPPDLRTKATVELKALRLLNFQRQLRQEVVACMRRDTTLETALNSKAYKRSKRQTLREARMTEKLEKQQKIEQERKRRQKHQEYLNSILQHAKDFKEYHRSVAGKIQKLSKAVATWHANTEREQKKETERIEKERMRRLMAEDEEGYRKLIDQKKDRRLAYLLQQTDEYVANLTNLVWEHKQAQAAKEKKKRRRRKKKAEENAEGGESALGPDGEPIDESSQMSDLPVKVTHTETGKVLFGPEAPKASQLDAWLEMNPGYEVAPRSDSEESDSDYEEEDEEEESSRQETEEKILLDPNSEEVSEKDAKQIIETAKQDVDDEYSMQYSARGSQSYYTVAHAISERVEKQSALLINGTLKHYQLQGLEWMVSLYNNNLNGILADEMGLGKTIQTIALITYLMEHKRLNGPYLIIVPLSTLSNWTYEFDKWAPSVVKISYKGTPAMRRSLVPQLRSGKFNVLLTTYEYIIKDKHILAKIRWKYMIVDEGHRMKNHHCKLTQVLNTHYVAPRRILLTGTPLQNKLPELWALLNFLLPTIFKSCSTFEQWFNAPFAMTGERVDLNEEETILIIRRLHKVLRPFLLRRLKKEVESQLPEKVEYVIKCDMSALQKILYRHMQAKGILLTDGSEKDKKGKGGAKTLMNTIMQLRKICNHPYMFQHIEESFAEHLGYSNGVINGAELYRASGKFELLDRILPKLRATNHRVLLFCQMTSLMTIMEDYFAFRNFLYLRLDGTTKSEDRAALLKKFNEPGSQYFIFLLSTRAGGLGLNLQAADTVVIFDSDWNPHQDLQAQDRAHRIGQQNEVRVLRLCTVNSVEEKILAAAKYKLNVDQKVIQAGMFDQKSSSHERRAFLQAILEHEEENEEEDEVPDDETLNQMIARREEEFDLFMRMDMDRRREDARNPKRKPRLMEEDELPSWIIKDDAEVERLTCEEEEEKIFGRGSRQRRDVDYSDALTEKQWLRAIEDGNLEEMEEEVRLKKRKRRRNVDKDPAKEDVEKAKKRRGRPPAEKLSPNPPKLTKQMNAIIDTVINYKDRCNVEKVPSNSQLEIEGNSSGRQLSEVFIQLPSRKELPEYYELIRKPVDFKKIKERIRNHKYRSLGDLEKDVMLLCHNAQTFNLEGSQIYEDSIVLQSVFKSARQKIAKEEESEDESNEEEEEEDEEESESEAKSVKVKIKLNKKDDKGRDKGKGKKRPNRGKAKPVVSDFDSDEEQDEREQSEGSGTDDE

[4] = Luminescence Cell-Based Dose Confirmation HTS to Identify Inhibitors of Platelet Dense Granule Release. [Related pubchem assays: 1663 (Primary HTS), 1678 (Summary of Project)]; format: functional
HEK293 [5] = experiment: inhibitors of LMP1-driven NF-kB reporter, dose response, cell-based, HEK293, luciferase, cherry-pick (AID 588343); format: functional; settings: Homo sapiens
[6] = control 3'UTR Renilla luciferase suppression, dose response, counter-screen for Shn3 inhibitor project, cell-based, Clone20-Shn3RL, cherry-picked (AID 624133); format: functional
[7] = HepG2 cell cytotoxicity, dose response, cytotoxicity control for Shn3 inhibitor project, CellTiter-Glo, cherry-picked (AID 624134); format: functional, cell-based
[8] = Shn3 3'UTR reporter inhibitors, dose response, cell-based, Clone20 osteoblasts, firefly luciferase, cherry-picked (AID 624132); format: functional;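 note: firefly luciferase luminescence from reporter carrying the Shn3 3'UTR in osteoblasts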
Protein Tat = target: T1, Protein Tat (Human immunodeficiency virus type 1 group M subtype B (isolate HXB2)(HIV-1), UniProt P04608); format: functional;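 note: tat binding to TAR RNA read out by fluorescence polarization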
T1 sequence (P04608 whole entry): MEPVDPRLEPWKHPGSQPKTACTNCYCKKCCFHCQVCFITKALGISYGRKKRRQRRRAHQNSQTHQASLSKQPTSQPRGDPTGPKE

HEK293 [9] = experiment: cells; format: functional, cell-based; settings: Homo sapiens
HEK293 [10] = experiment: NOD2 signaling inhibitors in MDP-stimulated cells, cell-based, uHTS, luminescence (AID 2001); format: functional; settings: Homo sapiens
HEK293 [11] = experiment: NOD1 signaling inhibitors, primary screen, cell-based, luminescence, uHTS (AID 1578); format: functional; settings: Homo sapiens
HEK293 [12] = experiment: cells; format: functional, cell-based; settings: Homo sapiens; remark: listed apart in the source
[13] = HEK293T cytotoxicity, dose response, cytotoxicity control for miR-122 modulator project, cell-based, inhibitor set, cherry-pick, set 2 (AID 720697); format: functional
cells = format: functional
H4 = experiment: Luminescence Cell-Based Dose Response HTS to Identify Activators of 5'UTR Stem-Loop Driven Prion Protein mRNA Translation in H4 Neuroglioblastoma Cells. [Related pubchem assays: 1829 (Project Summary), 1814 (Primary HTS)]; format: functional; settings: Homo sapiens
[14] = tested on: Streptococcus sp. 'group A'; experiment: growth inhibition of control SK(-) GAS strain, dose response, counter-screen for streptokinase expression inhibitor project, luminescence, kanamycin, BacTiterGlo, confirmation (AID 1900); format: functional, organism-based
HeLa = experiment: HeLa cell cytotoxicity, dose response, cytotoxicity control for MITF activator project, CellTiter-Glo luminescence, cherry-pick samples (AID 540259); format: functional, cell-based; settings: Homo sapiens
[15] = Luminescence Cell-Based Dose Response HTS to Identify Activators of Luciferase Translation or Activity in H4 […] Cells. [Related pubchem assays: 1829 (Project Summary), 1814 (Primary HTS)]; format: functional
Streptococcus = experiment: Group A Streptococcus viability loss, dose response, counter-screen for streptokinase expression inhibitor project, luminescence, BacTiterGlo (AID 1915); format: functional, organism-based;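 note: potency for reduction of bacterial viability or growth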
[16] = P. falciparum Dd2 growth inhibitors, dose response, SYBR Green, cherry-picked samples (AID 1159567); format: functional, cell-based
[17] = HepG2 cell cytotoxicity, dose response, cytotoxicity control, cherry-picked samples (AID 1159577); format: functional, cell-based
[18] = CEM21 lymphoblast cell cytotoxicity, dose response, cytotoxicity control for viral fusion inhibitor project, CellTiter-Glo luminescence, cherry-picked (AID 652042); format: functional, cell-based;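 note: potency for signal decrease meaning cytotoxicity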
[19] = inhibitors of HIV Env-driven cell fusion, dose response, cherry-pick (AID 652057); format: functional, cell-based
[20] = inhibitors of clade B AD8 Env fusion, dose response, cell-based, cherry-pick (AID 652062); format: functional;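 note: luciferase signal from cell-cell fusion driven by HIV-1 clade B AD8 Env; potency is for inhibitors of fusion seen as a drop in luminescence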
[21] = HEK293T cytotoxicity, dose response, cytotoxicity control for miR-122 modulator project, cell-based, activator set, cherry-pick (AID 720690); format: functional;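 note: HEK293T human cells scored for general mammalian cytotoxicity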

CCN(CC)c1ccc(Nc2cc3n(c(=O)n2)CCc2cc(OC)c(OC)cc2-3)cc1
EC50 [1]: > 91.2 µM (inactive)
EC50 [2]: > 112 µM (not active)
EC50 [3]: > 91.2 µM (inactive)
EC50 [4]: > 112 µM (not active)

CCCC(=O)NC(c1cccc([N+](=O)[O-])c1)c1ccc2cccnc2c1O (centres undefined)
AC50 (HEK293 [5]): 4.48 µM (active)
AC50 [6]: 3.55 µM (active)
AC50 [7]: 4.25 µM (active)
AC50 [8]: 1.75 µM (active)

CCCCN1C(=O)NC(=O)C2(Cc3ccccc3N3CCOCC32)C1=O (centres undefined)
IC50 (Protein Tat): > 100 µM (active)

COC(=O)c1ccc2c(O)nc(CCl)nc2c1
IC50 (HEK293 [9]): > 20 µM (inactive)
IC50 (HEK293 [10]): > 20 µM (inactive)
EC50 (HEK293 [11]): > 20 µM (inactive)
IC50 (HEK293 [12]): > 20 µM (inactive)

CN(C[C@H]1N[C@@H](CO)[C@H]1c1ccc(-c2ccccc2)cc1)C(=O)C1CCC1
AC50 [13]: 10.2 µM (active)

Cc1cccc(OC(=O)c2sc3ncn(C)c(=O)c3c2C)c1
IC50 (cells): 2.87 µM (active)
EC50 (H4): 19.8 µM (active)
EC50 [14]: 2.85 µM (active)
AC50 (HeLa): > 350 µM (inactive)
EC50 [15]: > 120 µM (not active)
EC50 (Streptococcus): 7.36 µM (active)

CC(C)[C@H](N)C(=O)N[C@H]1CCC2C3CC=C4C[C@@H](O)CC[C@]4(C)C3CC[C@@]21C (some centres undefined)
EC50 [1]: > 91.2 µM (inactive)
EC50 [3]: > 91.2 µM (inactive)

O=C(C[C@H]1C[C@H]2c3cc(NS(=O)(=O)c4ccc(F)cc4)ccc3O[C@H]2[C@H](CO)O1)NCc1ccc(Cl)cc1
AC50 [16]: 6.82 µM (active)
AC50 [17]: > 39 µM (inactive)

C[C@H]1CN([C@@H](C)CO)C(=O)c2c(c3ccccc3n2C)-c2ccccc2CO[C@@H]1CN(C)C(=O)Cc1ccccc1
AC50 [16]: 3.45 µM (active)
AC50 [18]: 27.4 µM (active)
AC50 [19]: < 0.26 µM (active)
AC50 [20]: < 0.26 µM (active)

O=C(NNC(S)=Nc1ccc(F)cc1F)c1ccco1
EC50 [1]: > 91.2 µM (inactive)
EC50 [3]: > 91.2 µM (inactive)

CC(C)CC#Cc1ccc([C@H]2[C@@H](CO)N3CCCCN(S(=O)(=O)Cc4ccccc4)C[C@H]23)cc1
AC50 [16]: 5.43 µM (active)
AC50 [17]: 8.87 µM (active)
AC50 [21]: 15 µM (active)

O=C(NC1CCCC1)c1cc(-c2ccc(Cl)cc2Cl)on1
AC50 (HeLa): > 350 µM (inactive)
